Nine molecules from patent publication US8008279B2, “Compound—827” (AstraZeneca AB, priority 2007, dated 2011) can be followed below.

For the first experiment, the target named is T1, rhuman cathepsin K (Homo sapiens, UniProt P43235).
T1 sequence (P43235 115-329): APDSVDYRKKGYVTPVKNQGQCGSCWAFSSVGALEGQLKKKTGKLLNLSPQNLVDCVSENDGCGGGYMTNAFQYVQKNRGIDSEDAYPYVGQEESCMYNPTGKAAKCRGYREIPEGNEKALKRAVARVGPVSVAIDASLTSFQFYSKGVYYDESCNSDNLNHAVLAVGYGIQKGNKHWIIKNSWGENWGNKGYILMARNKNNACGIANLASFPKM
Nature of the experiment: Assay for identification of Cathepsin K inhibitors (QFRET, cleavage of Z-Phe-Arg-AMC). The class given is biochemical. Conditions: 0.5 nM rhuman cathepsin K, Z-Phe-Arg-AMC substrate, 30 min pre-incubation, 1 h incubation at room temperature; mean of two separate occasions. The protocol: 0.5 nM [final] rhuman cathepsin K in phosphate buffer was added to a 384-well black microtitre plate containing investigative compounds. The enzyme and compound were pre-incubated at room temperature for 30 minutes before the addition of […] [final] Z-Phe-Arg-AMC synthetic substrate in phosphate buffer. The plates were covered and incubated for 1 h at room temperature, protected from light. Following the incubation the reaction was stopped with 7.5% [final]acetic acid. Relative fluorescence was measured using the Ultra plate reader at a wavelength of 360 nm excitation and 425 nm emission.
Data was corrected for background fluorescence (minimum controls without enzyme).
Regarding “(1R,2R)-N-(1-cyanocyclopropyl)-2-[(6-methyl-1,3,4,5-tetrahydro-2H-pyrido[4,3-b]indol-2-yl)carbonyl]cyclohexanecarboxamide [Example 6]”, the “CatK FRET Mean pIC50” value is recorded as 8.553.

Still in this experiment, the particulars now being: 0.5 nM rhuman cathepsin K, Z-Phe-Arg-AMC substrate, 30 min pre-incubation, 1 h incubation at room temperature; mean of two separate occasions; read-out: CatK FRET Mean pIC50 (converted).
For `CN(C)CCOc1cccc2c3c([nH]c12)CCN(C(=O)[C@@H]1CCCC[C@H]1C(=O)NC1(C#N)CC1)C3` [Example 36, (1R,2R)-N-(1-cyanocyclopropyl)-2-(6-(2-(dimethylamino)ethoxy)-2,3,4,5-tetrahydro-1H-pyrido[4,3-b]indole-2-carbonyl)cyclohexanecarboxamide], the IC50 was 0.324 nM.

For the molecule `N#CC1(NC(=O)[C@@H]2CCCC[C@H]2C(=O)N2CCc3[nH]c4c(OCCN5CCOCC5)cccc4c3C2)CC1` [Example 37, (1R,2R)-N-(1-cyanocyclopropyl)-2-(6-(2-morpholinoethoxy)-2,3,4,5-tetrahydro-1H-pyrido[4,3-b]indole-2-carbonyl)cyclohexanecarboxamide], the IC50 is 3.2 nM.

On to `N#CC1(NC(=O)[C@@H]2CCCC[C@H]2C(=O)N2CCc3[nH]c4c(OCCN5CCCC5)cccc4c3C2)CC1` [Example 38, (1R,2R)-N-(1-cyanocyclopropyl)-2-(6-(2-(pyrrolidin-1-yl)ethoxy)-2,3,4,5-tetrahydro-1H-pyrido[4,3-b]indole-2-carbonyl)cyclohexanecarboxamide], for which the IC50 was 1.64 nM.

On to `N#CC1(NC(=O)[C@@H]2CCCC[C@H]2C(=O)N2CCc3[nH]c4c(OCCN5CCCCC5)cccc4c3C2)CC1` [Example 39, (1R,2R)-N-(1-cyanocyclopropyl)-2-(6-(2-(piperidin-1-yl)ethoxy)-2,3,4,5-tetrahydro-1H-pyrido[4,3-b]indole-2-carbonyl)cyclohexanecarboxamide], for which the IC50 was 0.728 nM.

Take `CS(=O)(=O)n1c2c(c3ccccc31)CN(C(=O)[C@@H]1CCCC[C@H]1C(=O)NC1(C#N)CC1)CC2` [Example 40, (1R,2R)-N-(1-cyanocyclopropyl)-2-[(5-methanesulphonyl-1,3,4,5-tetrahydro-2H-pyrido[4,3-b]indol-2-yl)carbonyl]cyclohexanecarboxamide]: the IC50 is 10.8 nM.

Take `N#CC1(NC(=O)[C@@H]2CCCC[C@H]2C(=O)N2CCc3oc4ncccc4c3C2)CC1` [Example 41, (1R,2R)-2-(7,8-Dihydro-5H-furo[2,3-b:4,5-c′]dipyridine-6-carbonyl)-cyclohexanecarboxylic acid (1-cyano-cyclopropyl)-amide]: the IC50 was 6.44 nM.

With `N#CC1(NC(=O)[C@@H]2CCCC[C@H]2C(=O)N2CCc3[nH]c4c5c(ccc4c3C2)OC(F)(F)O5)CC1` [Example 44, (1R,2R)-N-(1-cyanocyclopropyl)-2-(2,2-difluoro-7,8,9,10-tetrahydro-6H-[1,3]dioxolo[4,5-g]pyrido[4,3-b]indole-7-carbonyl)cyclohexanecarboxamide], the IC50 is 2.13 nM.

With `COc1cc(F)cc2c3c([nH]c12)CCN(C(=O)[C@@H]1CCCC[C@H]1C(=O)NC1(C#N)CC1)C3` [Example 45, (1R,2R)-N-(1-cyanocyclopropyl)-2-(8-fluoro-6-methoxy-2,3,4,5-tetrahydro-1H-pyrido[4,3-b]indole-2-carbonyl)cyclohexanecarboxamide], the IC50 was 0.807 nM.
